Results taken from publication PMC5011342, “A high throughput drug screening assay to identify compounds that promote oligodendrocyte differentiation using acutely dissociated and purified oligodendrocyte precursor cells” (BMC Research Notes, 2016).
Structures can show the parent of a compound that is named as a salt. Where two headings read alike, the source gives them in different places.

Assays:
[1] = test system: acutely dissociated and purified rat OPCs; test: Acute OL differentiation assay (MBP expression/cell, immunofluorescent image quantification); assay type: cell-based; details: for activation at 0.08 µM / activation at 0.4 µM / activation at 2 µM / activation at 10 µM: Rattus norvegicus; for activation at 0.08 µM: test compound at 0.08 uM, read-out: 0.08 uM (% Quet)
Outline: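 This acute differentiation assay used purified rat OPCs from postnatal day 6–7 pups, seeded into PDL/laminin-coated 96-well plates in differentiation medium lacking PDGF and FGF. Compounds were applied in quadruplicate after a 1–2 h preincubation at 37 °C, 10 % CO2, with 0.1 % DMSO negative and 40 ng/ml T3 positive controls in eight wells. After fixation on DIV4, anti-MBP immunofluorescence images yielded MBP expression/cell.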

expanded OPCs = test: cells; details: for viability at 0.1 µM / viability at 1 µM / viability at 10 µM: Rattus norvegicus, 72 h
Outline: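 Toxicity screen: compounds added at 0.1, 1 and 10 µM to PDGF-AA-expanded OPCs in 96-well plates, 3-day incubation at 37 °C, 10% CO2, then alamarBlue 1:10 for 4 h with fluorescence readout. Results set screening doses of 10/2, 2/0.4 or 0.4/0.08 µM.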

[2] = test compound at 0.4 uM, MBP expression relative to quetiapine, NCC library screen, sheet "All OLga data", read-out: 0.4 uM (% Quet)
[3] = alamarBlue viability of expanded OPCs, compound at 0.1 µM, relative to DMSO control
[4] = alamarBlue viability of expanded OPCs, compound at 1 µM, relative to DMSO control
[5] = alamarBlue viability of expanded OPCs, compound at 10 µM, relative to DMSO control
[6] = 2 uM test compound, relative to quetiapine, sheet "All OLga data", read-out: OL differentiation, 2 uM (% Quet)
[7] = 10 uM test compound, relative to quetiapine, sheet "All OLga data", read-out: OL differentiation, 10 uM (% Quet)
[8] = read-out: 0.1 µM (% DMSO), alamarBlue viability, NCC library compound at 0.1 µM, sheet "All Tox data"
[9] = read-out: 1 µM (% DMSO), alamarBlue viability, NCC library compound at 1 µM, sheet "All Tox data"
[10] = read-out: 10 µM (% DMSO), alamarBlue viability, NCC library compound at 10 µM, sheet "All Tox data"
[11] = test compound at 2 uM, MBP expression relative to quetiapine, NCC library screen, sheet "All OLga data", read-out: 2 uM (% Quet)
[12] = read-out: 0.1 µM (% DMSO), alamarBlue viability of expanded OPCs, compound at 0.1 µM, sheet All Tox data
[13] = read-out: 1 µM (% DMSO), alamarBlue viability of expanded OPCs, compound at 1 µM, sheet All Tox data
[14] = read-out: 10 µM (% DMSO), alamarBlue viability of expanded OPCs, compound at 10 µM, sheet All Tox data
[15] = test compound at 2 uM, NCC library screen, sheet "All OLga data", relative to quetiapine, read-out: 2 uM (% Quet)
[16] = test compound at 10 uM, NCC library screen, sheet "All OLga data", relative to quetiapine, read-out: 10 uM (% Quet)
[17] = test compound at 10 uM, MBP expression relative to quetiapine, NCC library screen, sheet "All OLga data", read-out: 10 uM (% Quet)

With CN(C)CCCN1c2ccccc2CCc2ccc(Cl)cc21 [Clomipramine] the activation at 0.08 µM ([1]; MBP expression relative to quetiapine, NCC library screen, sheet "All OLga data") was 18.5%, the activation at 0.4 µM [1, 2] was -59.9% and the “0.1 µM (% DMSO)” value (expanded OPCs; [3]) was 76.2 % DMSO. The “1 µM (% DMSO)” value (expanded OPCs; [4]) was 37.7 % DMSO and the “10 µM (% DMSO)” value (expanded OPCs; [5]) was 8.7 % DMSO.
For Clc1cccc(Cl)c1N=C1NCCN1 [Clonidine hydrochloride], the activation at 2 µM [1, 6] was -12.5%, the activation at 10 µM [1, 7] was -14.3% and the viability at 0.1 µM (expanded OPCs; [8]) was 91.9%. It also gave a viability at 1 µM (expanded OPCs; [9]) of 84.3% and a viability at 10 µM (expanded OPCs; [10]) of 77.2%.
COC(=O)[C@H](c1ccccc1Cl)N1CCc2sccc2C1 [Clopidogrel] was tested, and the activation at 0.4 µM [1, 2] was -4%, the activation at 2 µM [1, 11] was -15% and the “0.1 µM (% DMSO)” value (expanded OPCs; [3]) was 103.8 % DMSO. For the same molecule, the “1 µM (% DMSO)” value (expanded OPCs; [4]) was 94.8 % DMSO and the “10 µM (% DMSO)” value (expanded OPCs; [5]) was 75.7 % DMSO.
For Clc1ccccc1C(c1ccccc1)(c1ccccc1)n1ccnc1 [Clotrimazole], the activation at 0.4 µM ([1]; 0.4 uM test compound, relative to quetiapine, sheet "All OLga data", read-out: OL differentiation, 0.4 uM (% Quet)) was 43.9%, the activation at 2 µM [1, 6] was 171% and the viability at 0.1 µM (expanded OPCs; [12]) was 82.3%. It also gave a viability at 1 µM (expanded OPCs; [13]) of 125% and a viability at 10 µM (expanded OPCs; [14]) of 54.9%.
With CN1CCN(C2=Nc3cc(Cl)ccc3Nc3ccccc32)CC1 [Clozapine] the activation at 0.4 µM [1, 2] was -5.6%, the activation at 2 µM [1, 11] was -39.3% and the “0.1 µM (% DMSO)” value (expanded OPCs; [3]) was 78.7 % DMSO. For the same molecule, the “1 µM (% DMSO)” value (expanded OPCs; [4]) was 61.3 % DMSO and the “10 µM (% DMSO)” value (expanded OPCs; [5]) was 24.6 % DMSO.
For C[C@]12C[C@H](O)[C@H]3[C@@H](CCC4=CC(=O)CC[C@@]43C)[C@@H]1CC[C@@H]2C(=O)CO [Corticosterone], the activation at 2 µM [1, 15] was 20.1%, the activation at 10 µM [1, 16] was 17.1% and the viability at 0.1 µM (expanded OPCs; [8]) was 105%. For the same molecule, the viability at 1 µM (expanded OPCs; [9]) was 108% and the viability at 10 µM (expanded OPCs; [10]) was 102%.
In the case of C[C@]12CCC(=O)C=C1CC[C@@H]1[C@@H]2[C@@H](O)C[C@@]2(C)[C@H]1CC[C@]2(O)C(=O)COC(=O)CCC(=O)O [Cortisol succinate], the “2 uM (% Quet)” value ([1]; test compound at 2 uM, NCC library screen, sheet "All OLga data", relative to quetiapine) is reported as 3.6 % Quet, the “10 uM (% Quet)” value ([1]; test compound at 10 uM, NCC library screen, sheet "All OLga data", relative to quetiapine) is reported as 21.7 % Quet and the “0.1 µM (% DMSO)” value (expanded OPCs; alamarBlue viability, NCC library compound at 0.1 µM, sheet "All Tox data") is reported as 123.4 % DMSO. The “1 µM (% DMSO)” value (expanded OPCs; alamarBlue viability, NCC library compound at 1 µM, sheet "All Tox data") was 127.0 % DMSO and the “10 µM (% DMSO)” value (expanded OPCs; alamarBlue viability, NCC library compound at 10 µM, sheet "All Tox data") was 132.7 % DMSO.
With CC(=O)OCC(=O)[C@@]1(O)CC[C@H]2[C@@H]3CCC4=CC(=O)CC[C@]4(C)[C@H]3C(=O)C[C@@]21C [Cortisone acetate] the activation at 2 µM [1, 11] was 8.6%, the activation at 10 µM [1, 17] was 4.1% and the “0.1 µM (% DMSO)” value (expanded OPCs; [3]) was 89.9 % DMSO. The “1 µM (% DMSO)” value (expanded OPCs; [4]) was 98.1 % DMSO and the “10 µM (% DMSO)” value (expanded OPCs; [5]) was 86.2 % DMSO.
For C[C@]12CCC(=O)C=C1CC[C@@H]1[C@@H]2CC[C@@]2(C)[C@H]1CC[C@]2(O)C(=O)CO [Cortodoxone], the activation at 2 µM [1, 15] was 2.2%, the activation at 10 µM [1, 16] was 5.5% and the viability at 0.1 µM (expanded OPCs; [8]) was 92.3%. The viability at 1 µM (expanded OPCs; [9]) was 99.6% and the viability at 10 µM (expanded OPCs; [10]) was 96.1%.
In the case of CN1C(=O)CC[C@H]1c1cccnc1 [Cotinine], the activation at 2 µM [1, 6] is reported as -8.8%, the activation at 10 µM [1, 7] is reported as 21.8% and the viability at 0.1 µM (expanded OPCs; [12]) is reported as 88.9%. For the same molecule, the viability at 1 µM (expanded OPCs; [13]) was 92% and the viability at 10 µM (expanded OPCs; [14]) was 98.7%.
O=C(O)c1cc(=O)c2c(OCC(O)COc3cccc4oc(C(=O)O)cc(=O)c34)cccc2o1 [Cromolyn Sodium] was tested, and the activation at 2 µM [1, 11] was -3%, the activation at 10 µM [1, 17] was 3.7% and the “0.1 µM (% DMSO)” value (expanded OPCs; [3]) was 93.1 % DMSO. The “1 µM (% DMSO)” value (expanded OPCs; [4]) was 94.0 % DMSO and the “10 µM (% DMSO)” value (expanded OPCs; [5]) was 85.3 % DMSO.
O=P1(N(CCCl)CCCl)NCCCO1 (stereo not drawn) [Cyclophosphamide] was tested, and the activation at 2 µM ([1]; read-out: 2 uM (% Quet)) was 16.5%, the activation at 10 µM ([1]; read-out: 10 uM (% Quet)) was 5.1% and the “0.1 µM (% DMSO)” value (expanded OPCs; rat) was 90.6 % DMSO. The “1 µM (% DMSO)” value (expanded OPCs; rat) was 100.6 % DMSO and the “10 µM (% DMSO)” value (expanded OPCs; rat) was 97.0 % DMSO.
N[C@@H]1CON=C1O [Cycloserine] showed an activation at 2 µM [1, 6] of 4.1%, an activation at 10 µM [1, 7] of 13.9% and an activation at 2 µM [1, 11] of -13.8%. For the same molecule, the activation at 10 µM [1, 17] was -23%, the viability at 0.1 µM (expanded OPCs; [12]) was 82.2% and the viability at 1 µM (expanded OPCs; [13]) was 87%. For the same molecule, the viability at 10 µM (expanded OPCs; [14]) was 97.4%, the “0.1 µM (% DMSO)” value (expanded OPCs; [3]) was 89.7 % DMSO and the “1 µM (% DMSO)” value (expanded OPCs; [4]) was 97.0 % DMSO. The “10 µM (% DMSO)” value (expanded OPCs; [5]) was 89.5 % DMSO.
In the case of CN1CCC(=C2c3ccccc3C=Cc3ccccc32)CC1 [Cyproheptadine], the activation at 0.08 µM ([1]; NCC library screen, sheet "All OLga data", relative to quetiapine) is reported as -0.6%, the activation at 0.4 µM ([1]; test compound at 0.4 uM, NCC library screen, sheet "All OLga data", relative to quetiapine, read-out: 0.4 uM (% Quet)) is reported as 10.3% and the viability at 0.1 µM (expanded OPCs; [8]) is reported as 71.2%. The viability at 1 µM (expanded OPCs; [9]) was 49.3% and the viability at 10 µM (expanded OPCs; [10]) was 25.2%.
